This is an account of results in US20250197417A1, “CRYSTALLINE INTERMEDIATES” (QBIOTICS PTY LTD, priority 2021, published 2025).

Series [1] in a line: Storage stability of crystalline forms of compound of formula (Ia). The series is classed as physicochemical. Here is the method: Form A of the crystalline anhydrous Compound of formula (Ia) was stable for at least 9 months in industrial packaging (Type III amber glass vial (10 mL) closed by a black plastic screw cap with polyethylene stoppers) at 25° C. and 60% relative humidity and as a free crystalline powder at 80° C. and 60% humidity for 24 hours.
The anhydrous crystalline Form B was characterized by an X-ray powder diffraction (X-RPD) pattern obtained using the copper wavelengths λ1 and λ2 of 1.54056 Å and 1.54439 Å showing a crystalline structure and comprising distinctive reflections, expressed as 20 degrees values, at 4.9, 8.5, 9.8, 11.4, 14.6, 16.5, 17.5, 19.5, 21.4, 27.7, 28.7±0.2 degrees 2θ.

Series [2] can be described thus: Crystallization study, preliminary solvent screening (solubility comments). The series is classed as physicochemical. An excerpt: An aliquot of purified compound of formula (Ia) obtained from Example 4 (0.83 L containing about 10 g of compound) was used in the crystallization study.

The structures appear in SMILES notation.

As to `CC1=CC2[C@]3(O)C(C4C(C)(C)[C@]4(O)[C@H](O)[C@H]3C)[C@@H]3O[C@@]34COC(C)(C)O[C@H]4[C@]2(O)C1=O` (stereo partly shown) [Form A], the “stable (storage time)” value was 24 h in series [1] (free crystalline powder, 80° C. and 60% humidity); “at least 9 months” in series [1] (industrial packaging (Type III amber glass vial, 10 mL, screw cap with polyethylene stoppers), 25° C. and 60% relative humidity). For the same molecule, the “solid form change upon storage” value in series [1] (storage at 5° C. for 5 days) was “transformed into a dihydrate form”; in series [1] (storage at 25° C. at 80% relative humidity for 68 hours), “a new stable anhydrous crystalline form was formed, Form B”; in series [1] (storage at 40° C. at 80% relative humidity for 7 days) it was “a new stable anhydrous crystalline form was formed, Form B”.
Take `CC1=CC2[C@]3(O)C(C4C(C)(C)[C@]4(O)[C@H](O)[C@H]3C)[C@@H]3O[C@@]34COC(C)(C)O[C@H]4[C@]2(O)C1=O` (stereo partly shown) [Form B]: in series [1] (25° C. at 80% relative humidity), the “stable unchanged (further storage time)” value is recorded as at least 7 days.
As to `CC1=CC2[C@]3(O)C(C4C(C)(C)[C@]4(O)[C@H](O)[C@H]3C)[C@@H]3O[C@@]34COC(C)(C)O[C@H]4[C@]2(O)C1=O` (stereo partly shown) [Compound of formula (Ia)], the “Comment (solubility)” value in series [2] (2-Propanol, 5 V → 10 V, 20-25° C. → reflux, remained dissolved) was “Remained”; in series [2] (Acetone, 5 V → 10 V, 20-25° C. → reflux, soluble only with 10 V of acetone at reflux) it was “Soluble only”; in series [2] (Acetonitrile, 5 V → 10 V, 20-25° C. → reflux, dissolution observed at reflux), “Dissolution”; in series [2] (Dimethylformamide, 5 V → 10 V, 20-25° C., soluble only with 10 V of DMF), “Soluble only”; in series [2] (Ethyl acetate, 5 V → 10 V, 20-25° C., remained dissolved), “Remained”; in series [2] (Methyl tert-butyl ether, 5 V → 20 V, 20-25° C. → reflux), “Not soluble”.
Take `CC1=CC2[C@]3(O)C(C4C(C)(C)[C@]4(O)[C@H](O)[C@H]3C)[C@@H]3O[C@@]34COC(C)(C)O[C@H]4[C@]2(O)C1=O` (stereo partly shown) [dihydrate form]: in series [1] (storage at 25° C. and 80% relative humidity for 5 days), the “solid form change upon storage” value is “transformed back to Form A”.
